Laboratory results published in the Deep4Chem optical property database.
Each block holds one molecule with its values, some of them ahead of it.

Experiment: solvent given as SMILES

absorption maximum (in C1COCCO1): 456 nm
Compound: CC(=O)Nc1ccc(C2=C/C(=C\c3ccc(C#N)cc3)C(=O)N2)cc1

absorption maximum (in ClCCl): 428 nm
Compound: CCN(CC)c1ccc2cc(C#N)c(=N)oc2c1

absorption maximum (in ClCCl): 650 nm
Compound: CC(C)(C)c1ccc(Oc2cc3c4c(cc(Oc5ccc(C(C)(C)C)cc5)c5c6c(Oc7ccc(C(C)(C)C)cc7)cc7c8c(cc(Oc9ccc(C(C)(C)C)cc9)c(c2c45)c86)C(=O)C2=C7O[B-](F)(F)[n+]4c2ccc2ccccc24)C2=C(C3=O)c3ccc4ccccc4[n+]3[B-](F)(F)O2)cc1

Compound: COc1cc2c3c4c(c5ccc(C(C)(C)C)cc5c5c(OC)c(OC)c(OC)c(c2c(OC)c1OC)c45)=[N+]1C3=Nc2c3c4cc(OC)c(OC)c(OC)c4c4c(OC)c(OC)c(OC)c5c6cc(C(C)(C)C)ccc6c(c3c54)n2[B-]1(F)F
absorption maximum (in Cc1ccccc1): 850 nm

absorption maximum (in ClC(Cl)Cl): 671 nm
Compound: COc1ccccc1-c1cc2c(o1)=CC1=Cc3cc4oc(-c5ccccc5OC)cc4n3[B-](F)(F)[N+]=21

absorption maximum (in ClC(Cl)Cl): 670 nm
Compound: CCOC(=O)/C(C)=C/C1=C(c2ccc(C)cc2)C2=Nc3c(-c4ccc(C)cc4)c(-c4ccc(OC)cc4)c(-c4ccc(C)cc4)n3[B-](F)(F)[N+]2=C1c1ccc(C)cc1

absorption maximum (in CO): 635 nm | absorption maximum (in ClC(Cl)Cl): 641 nm | absorption maximum (in ClCCl): 641 nm
Compound: CN1C(=CC2=C([O-])C(=CC3=[N+](C)c4ccc(Cl)cc4C3(C)C)C2=O)C(C)(C)c2cc(Cl)ccc21

absorption maximum (in CCO): 342 nm
Compound: O=C(c1cc(F)c(N2CCOCC2)cc1F)c1cc(F)c(N2CCOCC2)cc1F

absorption maximum (in ClC(Cl)Cl): 575 nm
Compound: CC1=C(/C=C/c2ccccc2)C(C)=[N+]2C1=C(c1ccccc1)c1c(C)c(/C=C/c3ccccc3)c(C)n1[B-]2(F)F

Compound: Cc1cc(C#Cc2ccccc2)c2ccc3c(C#Cc4ccccc4)cc(C#Cc4ccccc4)c4ccc1c2c43
absorption maximum (in CS(C)=O): 451 nm | absorption maximum (in ClC(Cl)(Cl)Cl): 445 nm

absorption maximum (in CN(C)C=O): 376 nm
Compound: CCN(CC)c1ccc(-c2nc(Oc3ccc(-c4nc5ccccc5[nH]4)cc3)nc(Oc3ccc(-c4nc5ccccc5[nH]4)cc3)n2)cc1

absorption maximum (in CC1CCCCC1): 336 nm | absorption maximum (in CC#N): 343 nm | absorption maximum (in CO): 346 nm
Compound: COC(=O)C(NC(=O)OC(C)(C)C)c1ccc2oc(-c3ccc(N(C)C)cc3OC)nc2c1 (configuration not stated)

absorption maximum (in C1CCCCC1): 388 nm
Compound: CCCCCCCCOc1ccc2c3c(c4ccc(OCCCCCCCC)cc4c2c1)C(C)(C)c1ccccc1-3

Compound: CN(C)c1ccc(/C=C2\CCCC2=O)cc1
absorption maximum (in CC#N): 380 nm | absorption maximum (in CC(C)=O): 379 nm | absorption maximum (in CC(C)O): 390 nm | absorption maximum (in CCCCCC): 357 nm | absorption maximum (in CCCCO): 392 nm | absorption maximum (in CCCO): 394 nm | absorption maximum (in CCO): 390 nm | absorption maximum (in CCOC(C)=O): 370 nm | absorption maximum (in CCOCC): 365 nm | absorption maximum (in CN(C)C=O): 383 nm | absorption maximum (in CO): 391 nm | absorption maximum (in CS(C)=O): 383 nm | absorption maximum (in Cc1ccccc1): 373 nm | absorption maximum (in ClC(Cl)(Cl)Cl): 370 nm | absorption maximum (in ClC(Cl)Cl): 383 nm | absorption maximum (in ClCCl): 383 nm | absorption maximum (in S=C=S): 387 nm | absorption maximum (in c1ccccc1): 380 nm | absorption maximum (in c1ccncc1): 384 nm

absorption maximum (in CO): 299 nm
Compound: COc1ccc(-c2nc(-c3ccccc3OC)[nH]c2-c2ccc(OC)cc2)cc1

absorption maximum (in ClC(Cl)Cl): 522 nm
Compound: C(#Cc1ccncc1)C(C#Cc1ccncc1)=Cc1ccc(C=C(C#Cc2ccncc2)C#Cc2ccncc2)s1

absorption maximum (in ClCCl): 370 nm
Compound: c1ccc(N(c2ccccc2)c2ccc(-c3nc(-c4ccc(N(c5ccccc5)c5ccccc5)cc4)c4ccccc4n3)cc2)cc1

Compound: N#Cc1cccc(C#N)c1-c1ccc(N2c3ccccc3C3(c4ccccc42)c2ccccc2N(c2ccc(-c4c(C#N)cccc4C#N)cc2)c2ccccc23)cc1
absorption maximum (in Cc1ccccc1): 371.03 nm

Compound: CCCCCCCCC1(CCCCCCCC)c2cc(C#CC#Cc3ccc(N(c4ccccc4)c4ccccc4)cc3)ccc2-c2ccc(C=O)cc21
absorption maximum (in C1CCOC1): 377 nm | absorption maximum (in C1COCCO1): 383 nm | absorption maximum (in CC#N): 375 nm | absorption maximum (in CC(C)=O): 389 nm | absorption maximum (in CCCCCC): 378 nm | absorption maximum (in CCOC(C)=O): 381 nm | absorption maximum (in CN(C)C=O): 382 nm | absorption maximum (in CS(C)=O): 382 nm | absorption maximum (in Cc1ccccc1): 387 nm | absorption maximum (in ClC(Cl)Cl): 375 nm | absorption maximum (in ClCCl): 365 nm

Compound: C(=C\c1ccc(/C=C/c2ccc(N(c3ccccc3)c3ccccc3)cc2)c2nsnc12)/c1ccc(N(c2ccccc2)c2ccccc2)cc1
absorption maximum (in C1CCOC1): 512 nm | absorption maximum (in CCOC(C)=O): 502 nm | absorption maximum (in CN(C)C=O): 513 nm | absorption maximum (in Cc1ccccc1): 521 nm | absorption maximum (in ClC(Cl)Cl): 514 nm | absorption maximum (in ClCCl): 512 nm

absorption maximum (in CS(C)=O): 348 nm
Compound: c1ccc(-c2nc3sc4ccccc4c3s2)cc1

absorption maximum (in ClC(Cl)Cl): 486 nm
Compound: C(#Cc1cccs1)C(C#Cc1cccs1)=Cc1ccc(C=C(C#Cc2cccs2)C#Cc2cccs2)s1

absorption maximum (in CC#N): 380 nm
Compound: CCOC(=O)c1c2c3c(ccc(C)c3c3cc4c(cc13)[Si](C)(C)O[Si]4(C)C)N(C)C2=O

absorption maximum (in C1CCCCC1): 267.24 nm
Compound: COc1ccccc1

absorption maximum (in C1CCOC1): 492 nm
Compound: N#Cc1ccc(C2=CC3=c4cc(-c5ccc(C#N)cc5)c5nc(C(F)(F)C(F)(F)C(F)(F)F)nc6c(-c7ccc(C#N)cc7)cc(c4c65)C4=CC(c5ccc(C#N)cc5)=C5N=C(C(F)(F)C(F)(F)C(F)(F)F)N=C2C5C43)cc1 (configuration not stated)

Compound: CC1=C(c2cccs2)C(C)=[N+]2C1=C(c1ccc(O)cc1)c1c(C)c(-c3cccs3)c(C)n1[B-]2(F)F
absorption maximum (in CO): 521 nm | absorption maximum (in Cc1ccccc1): 530 nm | absorption maximum (in ClCCl): 528 nm

absorption maximum (in CN(C)C=O): 522 nm
Compound: CCCCCCCCCCCCN1C(=O)c2ccc3c4ccc5c6c(ccc(c7ccc(c2c37)C1=O)c64)C(=O)NC5=O

Compound: COc1cc(-c2nc3c4cccnc4c4ncccc4c3[nH]2)c(OC)cc1/C=C/c1ccncc1
absorption maximum (in C1CCOC1): 394 nm | absorption maximum (in CC#N): 392 nm | absorption maximum (in CN(C)C=O): 396 nm | absorption maximum (in Cc1ccccc1): 395 nm

absorption maximum (in CO): 320 nm
Compound: Cc1ccc(-c2nc(-c3ccccc3O)[nH]c2-c2ccc(C)cc2)cc1

absorption maximum (in ClCCl): 311 nm
Compound: CCOC(=O)C1=C(C(=O)OCC)C2(c3ccccc3-c3ccccc32)[C@@H](c2ccccc2)C=C2c3cc(OC)c(OC)cc3CCN21

absorption maximum (in C1CCOC1): 331 nm | absorption maximum (in CC#N): 336 nm | absorption maximum (in CS(C)=O): 344 nm | absorption maximum (in ClC(Cl)Cl): 341 nm
Compound: O=c1oc2ccccc2cc1-c1ccc([N+](=O)[O-])cc1

absorption maximum (in c1ccccc1): 426 nm
Compound: Cc1nc2c(ccc3ccc(N(C)C)cc32)oc1=O

Compound: CC1(C)c2ccccc2N(c2ccc3c(c2)c2cc(N4c5ccccc5C(C)(C)c5ccccc54)ccc2c2nc4ccccc4nc32)c2ccccc21
absorption maximum (in Cc1ccccc1): 380 nm

absorption maximum (in O): 458 nm
Compound: NNC(=O)N1C(=O)c2cc(S(=O)(=O)[O-])cc3c(N)c(S(=O)(=O)[O-])cc(c23)C1=O

absorption maximum (in CC#N): 368 nm
Compound: COc1ccc(/C=C/c2nc3c4ccccc4c4ccccc4c3o2)cc1

absorption maximum (in C1CCCCC1): 360 nm | absorption maximum (in CC#N): 358 nm | absorption maximum (in CO): 359 nm | absorption maximum (in ClC(Cl)Cl): 361 nm
Compound: CC1(C)CC(/N=C/c2ccc3ccc4cccc5ccc2c3c45)CC(C)(C)N1

absorption maximum (in ClCCl): 519 nm | absorption maximum (in OCC(F)(F)F): 509 nm
Compound: FC(F)(F)C(F)(F)C(F)(F)C(F)(F)C(F)(F)C(F)(F)C(F)(F)C(F)(F)CCOc1nnc(Cl)nn1

absorption maximum (in CCO): 590 nm | absorption maximum (in O): 590 nm
Compound: CC/[NH+]=c1\cc2oc3cc(NCCOC(=O)C(NC(=O)OC(C)(C)C)C(C)C)c4ccccc4c3nc-2cc1C (configuration not stated)

absorption maximum (in CCO): 557 nm | absorption maximum (in O): 567 nm
Compound: O=C(O)COc1cccc(OCC(=O)O)c1-c1c2ccc(=[N+]3CCCCC3)cc-2oc2cc(N3CCCCC3)ccc12

absorption maximum (in CO): 382 nm
Compound: O=C(O)CCCOc1cc2ccc3cccc4ccc(c1)c2c34

absorption maximum (in C1CCOC1): 376 nm | absorption maximum (in CC#N): 377 nm | absorption maximum (in CCCCCCC): 373 nm | absorption maximum (in CS(C)=O): 383 nm | absorption maximum (in ClCCl): 381 nm
Compound: CSc1ccc(/C=C/c2cnc3ccccc3n2)cc1

absorption maximum (in O): 278 nm
Compound: [NH3+]C(Cc1ccc(O)c(O)c1)C(=O)[O-] (configuration not stated)

Compound: O=P1(c2ccccc2)C(c2ccc(N(c3ccccc3)c3ccccc3)cc2)=Cc2cc3ccccc3cc21 (configuration not stated)
absorption maximum (in C1CCOC1): 407 nm | absorption maximum (in CC#N): 404 nm | absorption maximum (in CN(C)C=O): 407 nm | absorption maximum (in Cc1ccccc1): 412 nm | absorption maximum (in ClC(Cl)Cl): 417 nm | absorption maximum (in ClCCl): 414 nm

Compound: CC1(C)c2ccccc2N(c2ccc3c(c2)c(=O)c2cccc4c(=O)c5cc(N6c7ccccc7C(C)(C)c7ccccc76)ccc5n3c24)c2ccccc21
absorption maximum (in Cc1ccccc1): 432.96 nm

absorption maximum (in ClCCl): 306.5 nm
Compound: C#Cn1c(-c2cc(-c3nc4ccc(C)cc4n3C#C)cc(-c3nc4ccc(C)cc4n3C#C)c2)nc2ccc(C)cc21

absorption maximum (in CCO): 369 nm
Compound: O=c1c2cc(F)c(N3CCCCC3)cc2oc2cc(N3CCCCC3)c(F)cc12

absorption maximum (in O): 500 nm
Compound: CN(C)c1ccc2cc3ccc(N(C)C)cc3nc2c1

absorption maximum (in CC#N): 326 nm | absorption maximum (in ClCCl): 343 nm
Compound: Cc1cc(-c2ccccc2)cc(C)[o+]1

absorption maximum (in ClC(Cl)Cl): 611 nm
Compound: CCCCCCc1cc(-c2ccc3c(c2)C2CCCC2N3c2ccc3c(c2)C(C)(C)c2ccccc2-3)sc1/C=C1\C(=O)c2ccc(C(=O)O)cc2C1=O (configuration not stated)

Compound: c1ccc(-c2nc(-c3ccccc3)nc(-c3ccc(N4c5ccccc5[Si](c5ccccc5)(c5ccccc5)c5ccccc54)cc3)n2)cc1
absorption maximum (in Cc1ccccc1): 376.66 nm

absorption maximum (in ClCCl): 666 nm
Compound: COc1ccc(C#Cc2c3cc4ccccc4cc3c(C#Cc3ccc(OC)cc3)c3cc4ccccc4cc23)cc1

absorption maximum (in ClC(Cl)Cl): 501 nm
Compound: Cc1cccc(C)c1-c1cc2c(C)c3c4ccc5nc6c(ccc7c8c(C)c9cc(-c%10c(C)cccc%10C)c(-c%10c(C)cccc%10C)cc9c(C)c8c76)nc5c4c3c(C)c2cc1-c1c(C)cccc1C

absorption maximum (in ClCCl): 354 nm
Compound: CC(C)(C)c1ccc2c(c1)c1cc(C(C)(C)C)ccc1n2-c1ccc(C#Cc2ccc(C=O)cc2)cc1

absorption maximum (in ClCCl): 281 nm
Compound: COc1ccc(-c2cc(-c3ccc(C#N)cc3)nn2C)cc1

absorption maximum (in ClCCl): 683 nm
Compound: F[B-]1(F)n2c(-c3ccccc3)cc(-c3cccs3)c2N=C2C(c3cccs3)=CC(c3ccccc3)=[N+]21
